{
  "source": "paper PMC2743263",
  "about": "(Nature chemical biology, 2009)",
  "key": {"[1]": {"tested_on": "autoinducer production by V. cholerae N16961", "assay": "microbe, parasite or virus in culture", "settings": "Vibrio cholerae, read-out: AI Inhibition IC50, BB170"}, "[2]": {"tested_on": "autoinducer-2 production in E. coli O157:H7", "assay": "Autoinducer-2 production after prolonged incubation", "assay_type": "cell-based, Escherichia coli", "settings": "E. coli O157:H7, LB, 26 generations, 1 μM; untreated 195-fold"}, "V. cholerae N16961": {"tested_on": "V. cholerae N16961", "assay": "Growth of V. cholerae", "assay_type": "cell-based, Vibrio cholerae"}, "[3]": {"tested_on": "autoinducer-2 production in V. cholerae N16961", "assay": "Autoinducer-2 production after prolonged incubation", "assay_type": "cell-based, Vibrio cholerae", "settings": "V. cholerae N16961, LB, 26 generations, untreated 540-fold"}, "E. coli O157:H7": {"tested_on": "E. coli O157:H7", "assay": "Growth of E. coli", "assay_type": "cell-based, Escherichia coli"}, "[4]": {"target": "T1, cellular MTAN activity in V. cholerae N16961 (Vibrio cholerae serotype O1, UniProt Q9KPI8)", "T1 sequence (Q9KPI8 1-231)": "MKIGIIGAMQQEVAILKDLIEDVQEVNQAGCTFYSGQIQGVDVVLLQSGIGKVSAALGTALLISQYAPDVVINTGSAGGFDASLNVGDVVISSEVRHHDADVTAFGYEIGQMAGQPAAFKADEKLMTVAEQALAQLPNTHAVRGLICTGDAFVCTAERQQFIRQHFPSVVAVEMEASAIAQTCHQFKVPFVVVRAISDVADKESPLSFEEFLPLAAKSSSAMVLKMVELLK", "assay_type": "cell-based", "settings": "cellular IC50 versus Ki*"}, "E. coli MTAN (EcMTAN)": {"tested_on": "E. coli MTAN (EcMTAN)", "settings": "read-out: dissociation constant; cited from earlier work"}, "VcMTAN": {"target": "T2, VcMTAN (Vibrio cholerae serotype O1, UniProt Q9KPI8)", "T2 sequence (Q9KPI8 1-231)": "T1 sequence (Q9KPI8 1-231)", "assay": "VcMTAN substrate kinetics, loss of MTA at 274 nm", "assay_type": "biochemical"}},
  "data": [
    {"smiles": "CCCCSC[C@H]1CN(Cc2c[nH]c3c(N)ncnc23)C[C@@H]1O", "note": "[BuT-DADMe-ImmA, 5′-butylthio-DADMe-ImmucillinA]", "values": [
      {"measurement": "IC50", "setting": "[1]", "result": "1.4 ± 0.3", "unit": "nM"},
      {"measurement": "light induction in BB170", "setting": "[2]", "result": 1.4, "unit": "fold"},
      {"measurement": "growth of cells in the biofilm assay", "setting": "V. cholerae N16961; V. cholerae N16961, 1 μM, static, 25 °C", "result": "did not inhibit growth"},
      {"measurement": "growth", "setting": "V. cholerae N16961; V. cholerae N16961, 26 generations, 1 or 2.5 μM", "result": "remained uninhibited"},
      {"measurement": "effect on cell growth (OD600)", "setting": "V. cholerae N16961; overnight culture, concentrations up to 1 μM", "result": "without affecting growth"},
      {"measurement": "quorum sensing signal (light induction in BB170)", "setting": "[3]; 1 μM", "result": 4.2, "unit": "fold"},
      {"measurement": "quorum sensing signal (light induction in BB170)", "setting": "[3]; 2.5 μM", "result": 1.3, "unit": "fold"},
      {"measurement": "growth of cells in the biofilm assay", "setting": "E. coli O157:H7; E. coli O157:H7, 1 μM, static, 25 °C", "result": "did not inhibit growth"},
      {"measurement": "growth", "setting": "E. coli O157:H7; E. coli O157:H7, 26 generations, 1 or 2.5 μM", "result": "remained uninhibited"},
      {"measurement": "growth", "setting": "E. coli O157:H7; E. coli O157:H7 and MTAN knockout strain, AB medium, up to 0.5 μM", "result": "no growth defects"},
      {"measurement": "increase above Ki* required to inhibit VcMTAN activity in the cell", "setting": "[4]", "result": 30, "unit": "fold"}
    ]},
    {"smiles": "CCSC[C@H]1CN(Cc2c[nH]c3c(N)ncnc23)C[C@@H]1O", "note": "[EtT-DADMe-ImmA, 5′-ethylthio-DADMe-ImmucillinA]", "values": [
      {"measurement": "IC50", "setting": "[1]", "result": "11 ± 2", "unit": "nM"}
    ]},
    {"smiles": "CSC[C@H]1CN(Cc2c[nH]c3c(N)ncnc23)C[C@@H]1O", "note": "[MT-DADMe-ImmA, 5′-methylthio-DADMe-ImmucillinA]", "values": [
      {"measurement": "IC50", "setting": "[1]", "result": "0.94 ± 0.13", "unit": "nM"},
      {"measurement": "Ki", "setting": "E. coli MTAN (EcMTAN)", "result": 0.002, "unit": "nM"}
    ]},
    {"smiles": "CSC[C@H]1O[C@@H](n2cnc3c(N)ncnc32)[C@H](O)[C@@H]1O", "note": "[MTA, methylthioadenosine]", "values": [
      {"measurement": "Km", "setting": "VcMTAN", "result": 3, "unit": "µM"},
      {"measurement": "kcat", "setting": "VcMTAN", "result": 2, "unit": "s⁻¹"}
    ]}
  ]
}
